Source: paper PMC6399351, “Cationic Intrinsically Disordered Antimicrobial Peptides (CIDAMPs) Represent a New Paradigm of Innate Defense with a Potential for Novel Anti-Infectives” (Scientific Reports, 2019)
Converted amounts (≈) assume the structure as drawn. Like-named read-outs stand apart in the source and are kept apart here. Square brackets hold non-standard residues; d marks the D form. Ends that are not written are not given here. Peptide text beside a SMILES is read from it. * marks the point of attachment. Palmitoyl = CCCCCCCCCCCCCCCC(=O)*; Myristoyl = CCCCCCCCCCCCCC(=O)*; dOrn = NCCC[C@@H](N)C(=O)O; Orn = NCCC[C@H](N)C(=O)O

Legend:
[1] = test system: Pseudomonas aeruginosa ATCC 27853; experiment: CO-ADD MIC, broth microdilution (CLSI); type: cell-based; details: Mueller–Hinton broth, 5 × 10^5 CFU/mL, 18 h 37 °C, by CO-ADD
Excerpt: (§1) They were defined as the lowest peptide
(§2) Further details of the screening

[2] = test system: Acinetobacter baumannii ATCC 19606; experiment: CO-ADD MIC, broth microdilution (CLSI); type: cell-based; details: Mueller–Hinton broth, 5 × 10^5 CFU/mL, 18 h 37 °C, by CO-ADD
Excerpt: as §1, §2

S. aureus ATCC 6538 = details: for LD90 / LD100: CFU assay
E. coli ATCC 25922 = experiment: CO-ADD MIC, broth microdilution (CLSI); type: cell-based, Escherichia coli; details: Mueller–Hinton broth, 5 × 10^5 CFU/mL, 18 h 37 °C, by CO-ADD
Excerpt: as §1, §2

[3] = test system: Staphylococcus aureus ATCC 43300; details: MRSA; CLSI, Mueller–Hinton broth, 5 × 10^5 CFU/mL, 18 h 37 °C, by CO-ADD
[4] = test system: Cryptococcus neoformans ATCC 208821; experiment: CO-ADD MIC, antifungal assay (CLSI); type: cell-based; details: Yeast Nitrogen Base broth, 24 h 35 °C, by CO-ADD
Protocol: (§3) Fungi strains were cultured for 3 days on Yeast Extract-Peptone Dextrose (YPD) agar at 30 °C. A yeast suspension of 1 × 10^6 to 5 × 10^6 cells/mL (as determined by OD530) was prepared from five colonies. These stock suspensions were diluted with Yeast Nitrogen Base (YNB) broth to a final concentration of 2.5 × 10^3 CFU/mL. […] Plates were covered and incubated at 35 °C for 24 h without shaking.

[5] = test system: Candida albicans ATCC 90028; experiment: CO-ADD MIC, antifungal assay (CLSI); type: cell-based; details: Yeast Nitrogen Base broth, 24 h 35 °C, by CO-ADD
Protocol: as §3

[6] = test system: Klebsiella pneumonia ATCC 700603; details: MDR strain; CLSI, Mueller–Hinton broth, 5 × 10^5 CFU/mL, 18 h 37 °C, by CO-ADD
P. aeruginosa ATCC 10145 = details: CFU assay, 10 mM NaP, pH 5.5, 0.25% glucose
[7] = 10 mM NaP, pH 5.5, 0.25% glucose
[8] = 10 mM NaP, pH 7.0, 0.25% glucose
[9] = 10 mM NaP, pH 7.2, 0.25% glucose

| Molecule | LD90 (S. aureus ATCC 6538; [7]) [µg/mL] | LD100 (S. aureus ATCC 6538; [7]) [µg/mL] | LD90 (P. aeruginosa ATCC 10145) [µg/mL] | LD100 (P. aeruginosa ATCC 10145) [µg/mL] | further results |
| --- | --- | --- | --- | --- | --- |
| N=C(N)NCCC[C@H](NC(=O)[C@H](CCCNC(=N)N)NC(=O)[C@H](CS)NC(=O)[C@H](CCCNC(=N)N)NC(=O)[C@H](Cc1c[nH]cn1)NC(=O)[C@H](CO)NC(=O)[C@H](CCCNC(=N)N)NC(=O)[C@H](CS)NC(=O)[C@H](CS)NC(=O)[C@H](CCCNC(=N)N)NC(=O)[C@H](Cc1c[nH]cn1)NC(=O)[C@H](Cc1c[nH]cn1)NC(=O)[C@@H](N)CO)C(=O)O [LCE-3B56-68] (H-SHHRCCRSHRCRR-OH) | 0.075 |  |  |  | Minimal inhibitory concentration (MIC) [1]: >32 µg/mL; Minimal inhibitory concentration (MIC) [2]: >32 µg/mL; LD90 (S. aureus ATCC 6538; value in molar units): 44 nM; Minimal inhibitory concentration (MIC) (E. coli ATCC 25922): >32 µg/mL; Minimal inhibitory concentration (MIC) [3]: 32 µg/mL (≈ 18.9 µM); Minimal inhibitory concentration (MIC) [4]: 8 µg/mL (≈ 4.72 µM); Minimal inhibitory concentration (MIC) [5]: >32 µg/mL; Minimal inhibitory concentration (MIC) [6]: >32 µg/mL |
| CCCCCCCCCCCCCC(=O)NCC(=O)N[C@@H](CCCNC(=N)N)C(=O)N[C@@H](Cc1c[nH]cn1)C(=O)NCC(=O)N[C@@H](CO)C(=O)NCC(=O)N[C@@H](CC(C)C)C(=O)NCC(=O)N[C@@H](Cc1c[nH]cn1)C(=O)N[C@@H](CO)C(=O)N[C@@H](CO)C(=O)N[C@@H](CO)C(=O)N[C@@H](Cc1c[nH]cn1)C(=O)NCC(=O)N[C@@H](CCC(N)=O)C(=O)N[C@@H](Cc1c[nH]cn1)C(=O)NCC(=O)N[C@@H](CO)C(=O)NCC(=O)N[C@@H](CO)C(=O)NCC(=O)N[C@@H](CCCNC(=N)N)C(=O)O [Myr-HR 1-18] (Myristoyl-GRHGSGLGHSSSHGQHGSGSGR-OH; C-terminus assumed) | 9.38 | 75 | 0.075 | 0.3 | LD90 (S. aureus ATCC 6538; 10 mM NaP, pH 7.3, 1% TSB): 18.75 µg/mL; LD100 (S. aureus ATCC 6538; 10 mM NaP, pH 7.3, 1% TSB): 75 µg/mL |
| CCCCCCCCCCCCCCCC(=O)NCC(=O)N[C@H](CCCCN)C(=O)NCC(=O)N[C@H](CCCCN)C(=O)O [Pal-(D)-GK4] (Palmitoyl-G[dK]G[dK]-OH; C-terminus assumed) | 4.7 | 9.375 | 1.18 | 4.7 |  |
| CCCCCCCCCCCCCCCC(=O)NCC(=O)N[C@H](CCCN)C(=O)NCC(=O)N[C@H](CCCN)C(=O)O [Pal-(D)-GO4] (Palmitoyl-G[dOrn]G[dOrn]-OH; C-terminus assumed) | 9.38 | 18.75 | 1.18 | 9.38 |  |
| CCCCCCCCCCCCCCCC(=O)NCC(=O)N[C@H](CCCNC(=N)N)C(=O)NCC(=O)N[C@H](CCCNC(=N)N)C(=O)O [Pal-(D)-GR4] (Palmitoyl-G[dR]G[dR]-OH; C-terminus assumed) | 18.75 | 37.5 | 18.75 | 150 |  |
| CCCCCCCCCCCCCCCC(=O)NCC(=O)N[C@@H](Cc1c[nH]cn1)C(=O)N[C@@H](Cc1c[nH]cn1)C(=O)NCC(=O)NCC(=O)N[C@@H](Cc1c[nH]cn1)C(=O)NCC(=O)NCC(=O)N[C@@H](Cc1c[nH]cn1)C(=O)NCC(=O)N[C@@H](Cc1c[nH]cn1)C(=O)NCC(=O)N[C@@H](Cc1c[nH]cn1)C(=O)O [Pal-GH13] (Palmitoyl-GHHGGHGGHGHGH-OH; C-terminus assumed) | 0.3 | 300 | 0.075 | 0.3 | LD90 (S. aureus ATCC 6538; [8]): 0.3 µg/mL; LD100 (S. aureus ATCC 6538; [8]): >300 µg/mL; S. aureus ATCC 6538-cidal activity (S. aureus ATCC 6538; pH 7.5, at concentrations >8 µM and <0.1 µM (antibiotic paradox)): complete loss of bactericidal activity |
| CCCCCCCCCCCCCCCC(=O)NCC(=O)N[C@@H](CCCCN)C(=O)NCC(=O)N[C@@H](CCCCN)C(=O)O [Pal-GK4] (Palmitoyl-GKGK-OH; C-terminus assumed) | 4.7 | 9.375 |  | 9.375 |  |
| CCCCCCCCCCCCCCCC(=O)NCC(=O)N[C@@H](CCCN)C(=O)NCC(=O)N[C@@H](CCCN)C(=O)O [Pal-GO4] (Palmitoyl-G[Orn]G[Orn]-OH; C-terminus assumed) | 9.38 |  | 2.35 | 18.75 |  |
| CCCCCCCCCCCCCCCC(=O)N[C@@H](CCCNC(=N)N)C(=O)NCC(=O)N[C@@H](CO)C(=O)N[C@@H](CCCNC(=N)N)C(=O)N[C@@H](CO)C(=O)NCC(=O)N[C@@H](CCC(N)=O)C(=O)N[C@@H](CO)C(=O)N[C@@H](CO)C(=O)N[C@@H](CCCNC(=N)N)C(=O)NCC(=O)N[C@@H](CCC(=O)O)C(=O)N[C@@H](CCCNC(=N)N)C(=O)N[C@@H](CCCNC(=N)N)C(=O)O [Pal-HR-1-11-2H2R-14] (Palmitoyl-RGSRSGQSSRGERR-OH) |  |  |  |  | Minimal inhibitory concentration (MIC) [1]: >32 µg/mL; Minimal inhibitory concentration (MIC) [2]: 4 µg/mL (≈ 2.2 µM); Minimal inhibitory concentration (MIC) (E. coli ATCC 25922): 8 µg/mL (≈ 4.41 µM); Minimal inhibitory concentration (MIC) [3]: 8 µg/mL (≈ 4.41 µM); Minimal inhibitory concentration (MIC) [4]: 8 µg/mL (≈ 4.41 µM); Minimal inhibitory concentration (MIC) [5]: >32 µg/mL; Minimal inhibitory concentration (MIC) [6]: >32 µg/mL |
| CCCCCCCCCCCCCCCC(=O)NCC(=O)N[C@@H](CCCCN)C(=O)N[C@@H](CCCCN)C(=O)NCC(=O)NCC(=O)N[C@@H](CCCCN)C(=O)NCC(=O)NCC(=O)N[C@@H](CCCCN)C(=O)NCC(=O)N[C@@H](CCCCN)C(=O)NCC(=O)N[C@@H](CCCCN)C(=O)O [Pal-K-GR13] (Palmitoyl-GKKGGKGGKGKGK-OH; C-terminus assumed) | 0.59 | >300 | < 0.019 | 0.15 |  |
| CCCCCCCCCCCCCCCC(=O)N[C@@H](CO)C(=O)N[C@@H](Cc1c[nH]cn1)C(=O)N[C@@H](Cc1c[nH]cn1)C(=O)N[C@@H](CCCNC(=N)N)C(=O)N[C@@H](Cc1c[nH]cn1)C(=O)N[C@@H](Cc1ccccc1)C(=O)N[C@@H](CCCNC(=N)N)C(=O)N[C@@H](CO)C(=O)N[C@@H](Cc1c[nH]cn1)C(=O)N[C@@H](CCC(N)=O)C(=O)N[C@@H](CS)C(=O)N[C@@H](CCCNC(=N)N)C(=O)N[C@@H](CCCNC(=N)N)C(=O)O [Pal-LCE-3C55-67] (Palmitoyl-SHHRHFRSHQCRR-OH) |  |  |  |  | Minimal inhibitory concentration (MIC) [1]: >32 µg/mL; Minimal inhibitory concentration (MIC) [2]: >32 µg/mL; Minimal inhibitory concentration (MIC) (E. coli ATCC 25922): >32 µg/mL; Minimal inhibitory concentration (MIC) [3]: 32 µg/mL (≈ 16.1 µM); Minimal inhibitory concentration (MIC) [4]: 1 µg/mL (≈ 0.504 µM); Minimal inhibitory concentration (MIC) [5]: 16 µg/mL (≈ 8.07 µM); Minimal inhibitory concentration (MIC) [6]: >32 µg/mL |
| CCCCCCCCCCCCCCCC(=O)NCC(=O)N[C@@H](CCCN)C(=O)N[C@@H](CCCN)C(=O)NCC(=O)NCC(=O)N[C@@H](CCCN)C(=O)NCC(=O)NCC(=O)N[C@@H](CCCN)C(=O)NCC(=O)N[C@@H](CCCN)C(=O)NCC(=O)N[C@@H](CCCN)C(=O)O [Pal-Orn-GR13] (Palmitoyl-G[Orn][Orn]GG[Orn]GG[Orn]G[Orn]G[Orn]-OH; C-terminus assumed) | 0.15 | 18.75 | 0.075 | 0.3 |  |
| GRRGSGGGRSSSRGGRGSGSGR [HR 1-18,4H-4R/L-G] | > 300 | > 300 |  | 0.15 |  |
| HAHSGHGQSTQRGSRTAGR [FLG-22082-2100] |  |  | 0.038 |  | Minimal inhibitory concentration (MIC) [1]: >32 µg/mL; Minimal inhibitory concentration (MIC) [2]: >32 µg/mL; Minimal inhibitory concentration (MIC) (E. coli ATCC 25922): >32 µg/mL; Minimal inhibitory concentration (MIC) [3]: >32 µg/mL; Minimal inhibitory concentration (MIC) [4]: >32 µg/mL; Minimal inhibitory concentration (MIC) [5]: >32 µg/mL; Minimal inhibitory concentration (MIC) [6]: >32 µg/mL |
| LRHGSGLGHSSSHGQHGSGSGR [HR 1-18-Leu] | 300 | > 300 | 4.7 |  |  |
| SRRSSSLSRSSSRSSRSSSSSR [HR 1-18,4H-4R/9G-9S] | 150 | > 300 | 0.15 | 1.18 | LD90 (S. aureus ATCC 6538; [9]): 75 µg/mL; LD100 (S. aureus ATCC 6538; [9]): > 300 µg/mL |
